# Experimental data taken from patent US4994477A, “Heterocyclic renin inhibitors” (Abbott Laboratories, priority 1988, dated 1991).
# Target: T1, human renal renin (Homo sapiens, UniProt P00797)
# T1 construct: human renal renin, free from acid proteolytic activity; from tissue; host or cells: human kidney (from the word 'renal')
# T1 sequence (P00797 67-406): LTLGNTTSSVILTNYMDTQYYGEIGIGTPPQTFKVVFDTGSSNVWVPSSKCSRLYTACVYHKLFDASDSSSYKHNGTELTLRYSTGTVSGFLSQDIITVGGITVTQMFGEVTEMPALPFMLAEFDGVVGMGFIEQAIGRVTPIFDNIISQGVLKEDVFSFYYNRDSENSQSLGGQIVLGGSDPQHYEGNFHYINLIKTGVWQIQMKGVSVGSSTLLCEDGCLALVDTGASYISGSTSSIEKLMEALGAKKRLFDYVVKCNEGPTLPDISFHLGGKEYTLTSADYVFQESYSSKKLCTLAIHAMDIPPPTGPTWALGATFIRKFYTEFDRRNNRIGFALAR
# Experiment: inhibition of human renal renin in vitro, angiotensin I formed measured by radioimmunoassay
# Type: biochemical
# Details: human angiotensinogen substrate, 37 degrees C, pH 6.0
# Experimental: At the end of the incubation, the amount of angiotensin I formed is measured by radioimmunoassay and the molar concentration required to cause 50% inhibition, expressed as the IC50, is calculated.
row,SMILES,IC50 [nM]
1,"CC(C)C[C@H](O)[C@H](O)[C@H](CC1CCCCC1)NC(=O)[C@H](Cc1c[nH]cn1)N1CCc2c([nH]c3ccccc23)C1=O [Example 101, (1'S,2""S,3""R,4""S)-2-[1-[N-(1-Cyclohexyl-3,4-dihydroxy-6-methyl-2-heptyl)carbamoyl]-2-(4-imidazolyl)ethyl]-1,2,3,4-tetrahydro-9H-pyrido[3,4-b]indol-1-one]",67
2,"CCN1C[C@@H]([C@H](O)[C@H](CC2CCCCC2)NC(=O)[C@H](Cc2c[nH]cn2)NC(=O)c2ccc3ccccc3n2)OC1=O [Example 109, N-(Quinolinyl-2-carbonyl)-His Amide of (2'S,1'R,5S)-3-Ethyl-5-(1-hydroxy-2-amino-3-cyclohexylpropyl)oxazolidin-2-one]",36
3,"CCN1C[C@@H]([C@H](O)[C@H](CC2CCCCC2)NC(=O)C(Cc2cscn2)N2Cc3c([nH]c4ccccc34)C2=O)OC1=O (stereo partly drawn) [Example 88, (1'RS,2""S,3""R,5""'S)-2-[1-[N-[1-Cyclohexyl-3-hydroxy-3-(3-ethyloxazolidin-2-on-5-yl)-2-propyl]carbamoyl]-2-(4-thiazolyl)ethyl]-1,2,3,4-tetrahydropyrrolo[3,4-b]indol-3-one]",28
4,"CC(C)C[C@H](O)[C@H](O)[C@H](CC1CCCCC1)NC(=O)[C@H](Cc1c[nH]cn1)NC(=O)c1cc2ccccc2n1C [Example 41, N-(1-Methylindolyl-2-carbonyl)-His Amide of 2(S)-Amino-1-cyclohexyl-3(R),4(S)-dihydroxy6-methylheptane]",160
5,"CCCCC(C(=O)N[C@@H](CC1CCCCC1)[C@@H](O)[C@@H](O)CC(C)C)N1Cc2c([nH]c3ccccc23)C1=O (stereo partly drawn) [Example 93, (1'RS,2""S,3""R,4""S)-2-[1-[N-(1-Cyclohexyl-3,4-dihydroxy-6-methyl-2-heptyl)carbamoyl]pentyl]-1,2,3,4-tetrahydropyrrolo[3,4-b]indol-3-one]",44
6,"CC(C)C[C@H](O)[C@H](O)[C@H](CC1CCCCC1)NC(=O)[C@H](Cc1c[nH]cn1)NC(=O)c1cc2ccccc2o1 [Example 43, N-(Benzofuranyl-2-carbonyl)-His Amide of 2(S)-Amino-1-cyclohexyl-3(R),4(S)-dihydroxy-6-methylheptane]",10
7,"CC(C)C[C@H](O)[C@H](O)[C@H](CC1CCCCC1)NC(=O)[C@H](Cc1c[nH]cn1)N1Cc2c([nH]c3ccccc23)C1=O [Example 58, (1'S,2""S,3""R,4""S)-2-[1-[N-(1-Cyclohexyl-3,4-dihydroxy-6-methyl-2-heptyl)carbamoyl]-2-(4-imidazolyl)ethyl]-1,2,3,4-tetrahydropyrrolo[3,4-b]indol-3-one]",8.2
8,"CC(C)C[C@H](O)[C@H](O)[C@H](CC1CCCCC1)NC(=O)CN1Cc2c([nH]c3ccccc23)C1=O [Example 75, (2'S,3'R,4'S)-2-[N-(1-cyclohexyl-3,4-dihydroxy-6-methyl-2-heptyl)carbamoyl]methyl-1,2,3,4-tetrahydropyrrolo[3,4-b]indol-3-one]",200
9,"CCCC[C@H](NC(=O)c1cc2ccccc2[nH]1)C(=O)N[C@@H](CC1CCCCC1)[C@@H](O)[C@@H](O)CC(C)C [Example 40, N-(Indolyl-2-carbonyl)-Nle Amide of 2(S)-Amino-1-cyclohexyl-3(R),4(S)-dihydroxy-6-methylheptane]",15
10,"CC(C)C[C@H](O)[C@H](O)[C@H](CC1CCCCC1)NC(=O)[C@H](Cc1c[nH]cn1)NC(=O)c1ccc2ccccc2c1 [Example 151, N-(2-Napthoyl)-His Amide of 2(S)-Amino-1-cyclohexyl-3(R),4(S)-dihydroxy-6-methylheptane]",32
11,"CC(C)C[C@H](O)[C@H](O)[C@H](CC1CCCCC1)NC(=O)[C@H](CCC(=O)O)NC(=O)c1cc2ccccc2[nH]1 [Example 38, N-(Indolyl-2-carbonyl)-Glu Amide of 2(S)-Amino-1-cyclohexyl-3(R),4(S)-dihydroxy-6-methylheptane]",130
12,"CC(C)C[C@H](O)[C@H](O)[C@H](CC1CCCCC1)NC(=O)[C@H](Cc1c[nH]cn1)NC(=O)c1ccc2ccccc2n1 [Example 110, N-(Quinolinyl-2-carbonyl)-His Amide of 2(S)-Amino-1-cyclohexyl-3(R),4(S)-dihydroxy-6-methylheptane]",8.7
13,"CCN1C[C@@H]([C@H](O)[C@H](CC2CCCCC2)NC(=O)[C@H](Cc2c[nH]cn2)N2Cc3c([nH]c4ccccc34)C2=O)OC1=O [Example 59, (1'S,2""S,3""R,5'""S)-2-[1-[N-[1-Cyclohexyl-3-hydroxy-3-(3-ethyloxazolidin-2-on-5-yl)-2-propyl]carbamoyl]-2-(4-imidazolyl)ethyl]-1,2,3,4-tetrahydropyrrolo[3,4-b]indol-3-one]",19
14,"O=C(N[C@@H](Cc1c[nH]cn1)C(=O)NCC(O)CO)c1[nH]c2ccccc2c1CCc1ccccc1 (stereo partly shown) [Example 130, [3-(2-Phenylethyl)indolyl-2-carbonyl]-His Amide of 3-Amino-1,2-propanediol]",10000
15,"CC(C)C[C@H](O)[C@H](O)[C@H](CC1CCCCC1)NC(=O)[C@H](Cc1c[nH]cn1)NC(=O)c1cc2ccccc2[nH]1 [Example 35, N-(Indolyl-2-carbonyl)-His Amide of 2(S)-Amino-1-cyclohexyl-3(R),4'(S)-dihydroxy-6-methylheptane]",3.3
16,"CC1=C(C(=O)N[C@@H](Cc2c[nH]cn2)C(=O)N[C@@H](CC2CCCCC2)[C@@H](O)[C@@H](O)CC(C)C)Cc2ccccc21 [Example 42, N-(3-Methylindenyl-2-carbonyl)-His Amide of 2(S)-Amino-1-cyclohexyl-3(R),4(S)-dihydroxy-6-methylheptane]",200
17,CCCC[C@@H](C(=O)N[C@@H](CC1CCCCC1)[C@@H](O)[C@@H](O)CC(C)C)N1CCc2c([nH]c3ccccc23)C1=O [Example 96],66
18,"CC(C)C[C@H](O)[C@H](O)[C@H](CC1CCCCC1)NC(=O)[C@H](CCC(=O)OCc1ccccc1)NC(=O)c1cc2ccccc2[nH]1 [Example 37, N-(Indolyl-2-carbonyl)-γ-benzyl-Glu Amide of 2(S)-Amino-1-cyclohexyl-3(R),4(S)-dihydroxy-6-methylheptane]",130

# Continued by falling IC50, values first:
row,IC50 [nM],SMILES
1,7000,"O=C(N[C@@H](Cc1c[nH]cn1)C(=O)NCC(O)CO)c1[nH]c2ccccc2c1CCC=CC1CCCCC1 (stereo partly shown) [Example 127, N-[3-(4-Cyclohexylbut-3-enyl)indolyl-2-carbonyl]-His Amide of 3-Amino-1,2-propanediol]"
2,3800,"O=C(N[C@@H](Cc1c[nH]cn1)C(=O)NCC(O)CO)c1[nH]c2ccccc2c1CCCC1CCCCC1 (stereo partly shown) [Example 125, N-[3-(3-Cyclohexylpropyl)indolyl-2-carbonyl]-His Amide of 3-Amino-1,2-propanediol]"
3,170,CC(C)C[C@H](O)[C@H](O)[C@H](CC1CCCCC1)NC(=O)[C@H](Cc1c[nH]cn1)NC(=O)c1nc2ccccc2n1Cc1ccccc1 [Example 48]
4,100,"CC(C)C[C@H](O)[C@H](O)[C@H](CC1CCCCC1)NC(=O)[C@H](CC(C)C)N1Cc2c([nH]c3ccccc23)C1=O [Example 70, (1'S,2""S,3""R,4""S)-2-[1-[N-(1-cyclohexyl-3,4-dihydroxy-6-methyl-2-heptyl)carbamoyl]-3-methylbutyl]-1,2,3,4-tetrahydropyrrolo[3,4-b]indol-3-one]"
5,89,"CCN1C[C@@H]([C@H](O)[C@H](CC2CCCCC2)NC(=O)C(Cc2cc[nH]n2)N2Cc3c([nH]c4ccccc34)C2=O)OC1=O (stereo partly drawn) [Example 89, (1'RS,2""S,3""R,5""'S)-2-[1-[N-[1-Cyclohexyl-3-hydroxy-3-(3-ethyloxazolidin-2-on-5-yl)-2-propyl]carbamoyl]-2-(3-pyrazolyl)ethyl]-1,2,3,4-tetrahydropyrrolo[3,4-b]indol-3-one]"
6,63,"CC(C)C[C@H](O)[C@H](O)[C@H](CC1CCCCC1)NC(=O)[C@H](Cc1c[nH]cn1)NC(=O)N1CCc2ccccc2C1 [Example 114, N-(1,2,3,4-Tetrahydroisoquinolinyl-2-carbonyl)-His Amide of 2(S)-Amino-1-cyclohexyl-3(R),4(S)-dihydroxy-6-methylheptane]"
7,31,"CC(C)C[C@H](O)[C@H](O)[C@H](CC1CCCCC1)NC(=O)[C@H](Cc1c[nH]cn1)NC(=O)c1nc2ccccc2s1 [Example 45, N-(Benzothiazolyl-2-carbonyl)-His Amide of 2(S)-Amino-1-cyclohexyl-3(R),4(S)-dihydroxy-6-methylheptane]"
8,27,"COCOC[C@H](NC(=O)c1cc2ccccc2[nH]1)C(=O)N[C@@H](CC1CCCCC1)[C@@H](O)[C@@H](O)CC(C)C [Example 150, N-(Indolyl-2-carbonyl)-(O-methoxymethyl)Ser Amide of 2(S)-Amino-1-cyclohexyl-3(R),4(S)-dihydroxy-6-methylheptane]"
9,9.5,"CC(C)C[C@H](O)[C@H](O)[C@H](CC1CCCCC1)NC(=O)[C@H](Cc1cc[nH]n1)N1Cc2c([nH]c3ccccc23)C1=O [Example 87, (1'S,2""S,3""R,4""S)-2-[1-[N-(1-Cyclohexyl-3,4-dihydroxy-6-methyl-2-heptyl)carbamoyl]-2-(3-pyrazolyl)ethyl]-1,2,3,4-tetrahydropyrrolo[3,4-b]indol-3-one]"
10,5,"CC(C)C[C@H](O)[C@H](O)[C@H](CC1CCCCC1)NC(=O)[C@H](Cc1cscn1)N1Cc2c([nH]c3ccccc23)C1=O [Example 81, (1'S,2""S,3""R,4""S)-2-[1-[N-(1-cyclohexyl-3,4-dihydroxy-6-methyl-2-heptyl)carbamoyl]-2-(4-thiazolyl)ethyl]-1,2,3,4-tetrahydropyrrolo[3,4-b]indol-3-one]"
